Each block holds one molecule with its values, some of them ahead of it.
What was measured:
renal hypertensive rats [1] = assay: Antihypertensive activity in renal hypertensive rats, i.m. (Table 3); assay type: in vivo, rat; conditions: 30 mg/kg/day i.m.
Description: (§1) An aqueous solution or suspension in peanut oil of each test compound as administered intramuscularly (i.m.) or orally (p.o.) at a dose of 30 to 100 mg/kg (body weight)/day once every morning over the period of 6 to 7 days.
(§2) The blood pressure of each rat was measured daily before and 5 hours after each administration. Furthermore, the blood pressure was measured every morning after drug withdrawal over a period of 3 to 6 days.
(§3) Test compounds (1)-(4) decreased the blood pressure of renal hypertensive rats with a dose of 30 mg/kg/day i.m.. […] The antihypertensive rats with a dose of 100 mg/kg/day p.o..

High renin plasma = biological target: T1, High renin plasma (Canis lupus familiaris, UniProt Q6DYE7); assay: Renin-inhibitory activity, Method II (high renin plasma of dog, inhibition of Angiotensin I formation); assay type: biochemical; conditions: Table 2; 37°C, 4 hours, 1.25 mg/ml; read-out: Rate of inhibiting the formation of Angiotensin I determined by Method II
T1 construct: High renin plasma prepared by constriction of the renal artery of a dog anesthetized with Nembutal; from tissue; host or cells: plasma of a dog with constricted renal artery
T1 sequence (Q6DYE7 66-403): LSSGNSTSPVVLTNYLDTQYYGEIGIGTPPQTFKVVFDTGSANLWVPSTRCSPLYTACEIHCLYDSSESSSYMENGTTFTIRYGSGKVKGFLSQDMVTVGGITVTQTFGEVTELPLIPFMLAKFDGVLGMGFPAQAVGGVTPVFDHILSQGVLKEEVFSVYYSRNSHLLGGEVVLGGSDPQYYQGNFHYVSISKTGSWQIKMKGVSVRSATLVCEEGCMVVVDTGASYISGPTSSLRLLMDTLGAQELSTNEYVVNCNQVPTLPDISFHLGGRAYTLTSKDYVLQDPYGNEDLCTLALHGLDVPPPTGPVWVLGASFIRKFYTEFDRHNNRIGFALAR
Description: High renin plasma prepared by constriction of the renal artery of a dog anesthetized with Nembutal (the plasma which when incubated at 37°40 C. for 6 hours, yields 30 to […]. of Angiotensin I) was incubated at 37° C. for 2 to 6 hours in the same way as in Method I, and also under the same conditions in the presence of 1.25 mg/ml. of each of the test compounds.
(§4) The results are shown in Table 1 (the rate of inhibiting the formation of Angiotensin I, as determined by Method I, when the plasma was incubated at 37° C. for 2, 4 and 6 hours respectively), and Table 2 (the rate of inhibiting the formation of Angiotensin I when the plasma was incubated at 37° C. for 4 hours, with the compound concentration of 1.25 mg/ml.)

Renin = biological target: T2, Renin (Homo sapiens, UniProt P00797); assay: Renin-inhibitory activity, Method I (inhibition of Angiotensin I formation, RIA); assay type: biochemical; conditions: Table 2; 37°C, 4 hours, 1.25 mg/ml; read-out: Rate of inhibiting the formation of Angiotensin I determined by Method I
T2 sequence (P00797 67-406): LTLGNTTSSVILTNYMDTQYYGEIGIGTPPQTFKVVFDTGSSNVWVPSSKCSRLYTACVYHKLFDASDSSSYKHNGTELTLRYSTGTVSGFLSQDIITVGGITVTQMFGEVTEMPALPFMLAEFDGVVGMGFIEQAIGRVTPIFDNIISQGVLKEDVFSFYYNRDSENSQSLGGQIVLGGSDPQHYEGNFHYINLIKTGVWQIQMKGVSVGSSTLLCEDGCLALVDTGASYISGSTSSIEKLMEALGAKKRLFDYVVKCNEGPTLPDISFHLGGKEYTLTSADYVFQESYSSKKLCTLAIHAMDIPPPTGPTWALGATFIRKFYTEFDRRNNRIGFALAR
Description: Renin (see E. Haas et al. Circulation Research, Vol. 19, p. 739, 1966 and Vol. 31, p. 65, 1972) was incubated in Angiotensinogen at 37° C. for 2 to 6 hours. Similarly, renin was incubated under the same conditions in the presence of 0.313 to 2.5 mg/ml. of each of the test compounds listed above. The amount of Angiotensin I was measured by radioimmunoassay (RIA) (E. Haber et al., J. Clin. Endocrinol., Vol. 29, p. 1349, 1969), and made the renin activity.
as §4

renal hypertensive rats [2] = assay: Antihypertensive activity in rats, p.o. (Table 4); assay type: in vivo, rat; conditions: 100 mg/kg/day p.o.
Description: as §1, §2, §3

[3] = 1st day, 0 h (immediately before administration)
[4] = 1st day, 5 hours after administration
[5] = 2nd day, 0 h (immediately before administration)
[6] = 2nd day, 5 hours after administration
[7] = 3rd day, 0 h (immediately before administration)
[8] = 3rd day, 5 hours after administration
[9] = 4th day, 0 h (immediately before administration)
[10] = 4th day, 5 hours after administration
[11] = 5th day, 0 h (immediately before administration)
[12] = 5th day, 5 hours after administration
[13] = 6th day, 0 h (immediately before administration)
[14] = 6th day, 5 hours after administration
[15] = 7th day, 0 h (immediately before administration)
[16] = 7th day, 5 hours after administration

SMILES: CCC=CCC=CCC=CCCCCCCCC(=O)NCCOP(=O)(O)OCCN [(1), 2-(Octadeca-9,12,15-trienoylamino)ethylphosphoryl ethanolamine]
Changes of blood pressure after drug withdrawal (renal hypertensive rats [1]; 1st day after withdrawal): -21 mmHg
Changes of blood pressure (renal hypertensive rats [1]; [3]): 0 mmHg
Changes of blood pressure (renal hypertensive rats [1]; [4]): -17 mmHg
Changes of blood pressure after drug withdrawal (renal hypertensive rats [1]; 2nd day after withdrawal): -13 mmHg
Changes of blood pressure (renal hypertensive rats [1]; [5]): -6 mmHg
Changes of blood pressure (renal hypertensive rats [1]; [6]): -33 mmHg
Changes of blood pressure after drug withdrawal (renal hypertensive rats [1]; 3rd day after withdrawal): -4 mmHg
Changes of blood pressure (renal hypertensive rats [1]; [7]): -8 mmHg
Changes of blood pressure (renal hypertensive rats [1]; [8]): -35 mmHg
Changes of blood pressure (renal hypertensive rats [1]; [9]): -16 mmHg
Changes of blood pressure (renal hypertensive rats [1]; [10]): -37 mmHg
Changes of blood pressure (renal hypertensive rats [1]; [11]): -20 mmHg
Changes of blood pressure (renal hypertensive rats [1]; [12]): -35 mmHg
Changes of blood pressure (renal hypertensive rats [1]; [13]): -24 mmHg
Changes of blood pressure (renal hypertensive rats [1]; [14]): -35 mmHg
inhibition at 1250 µg/mL (High renin plasma): 50%
inhibition at 1250 µg/mL (Renin): 61%

SMILES: NCCOP(=O)(O)OCCCNC(=O)COc1ccc(Oc2ccc(Cl)cc2)cc1 [(7), 3-[4-(4'-chlorophenoxy)phenoxyacetylamino]propylphosphoryl ethanolamine]
inhibition at 1250 µg/mL (High renin plasma): 52%
inhibition at 1250 µg/mL (Renin): 64%
Changes of blood pressure after drug withdrawal (renal hypertensive rats [2]; 1st day after withdrawal): -19 mmHg
Changes of blood pressure (renal hypertensive rats [2]; [3]): 0 mmHg
Changes of blood pressure (renal hypertensive rats [2]; [4]): -6 mmHg
Changes of blood pressure after drug withdrawal (renal hypertensive rats [2]; 2nd day after withdrawal): -11 mmHg
Changes of blood pressure (renal hypertensive rats [2]; [5]): -3 mmHg
Changes of blood pressure (renal hypertensive rats [2]; [6]): -10 mmHg
Changes of blood pressure after drug withdrawal (renal hypertensive rats [2]; 3rd day after withdrawal): -5 mmHg
Changes of blood pressure (renal hypertensive rats [2]; [7]): -3 mmHg
Changes of blood pressure (renal hypertensive rats [2]; [8]): -18 mmHg
Changes of blood pressure after drug withdrawal (renal hypertensive rats [2]; 4th day after withdrawal): -5 mmHg
Changes of blood pressure (renal hypertensive rats [2]; [9]): -10 mmHg
Changes of blood pressure (renal hypertensive rats [2]; [10]): -19 mmHg
Changes of blood pressure after drug withdrawal (renal hypertensive rats [2]; 5th day after withdrawal): -3 mmHg
Changes of blood pressure (renal hypertensive rats [2]; [11]): -10 mmHg
Changes of blood pressure (renal hypertensive rats [2]; [12]): -21 mmHg
Changes of blood pressure after drug withdrawal (renal hypertensive rats [2]; 6th day after withdrawal): -1 mmHg
Changes of blood pressure (renal hypertensive rats [2]; [13]): -11 mmHg
Changes of blood pressure (renal hypertensive rats [2]; [14]): -25 mmHg
Changes of blood pressure (renal hypertensive rats [2]; [15]): -18 mmHg
Changes of blood pressure (renal hypertensive rats [2]; [16]): -28 mmHg

SMILES: CC(Oc1ccc(Oc2ccc(Cl)cc2)cc1)C(=O)NCCCOP(=O)(O)OCCN (stereo not drawn) [(8), 3-{α-[4-(4'-chlorophenoxy)phenoxy]propionylamino} propylphosphoryl ethanolamine]
inhibition at 1250 µg/mL (High renin plasma): 51%
inhibition at 1250 µg/mL (Renin): 67%
Changes of blood pressure after drug withdrawal (renal hypertensive rats [2]; 1st day after withdrawal): -22 mmHg
Changes of blood pressure (renal hypertensive rats [2]; [3]): 0 mmHg
Changes of blood pressure (renal hypertensive rats [2]; [4]): +4 mmHg
Changes of blood pressure after drug withdrawal (renal hypertensive rats [2]; 2nd day after withdrawal): -12 mmHg
Changes of blood pressure (renal hypertensive rats [2]; [5]): +5 mmHg
Changes of blood pressure (renal hypertensive rats [2]; [6]): -1 mmHg
Changes of blood pressure after drug withdrawal (renal hypertensive rats [2]; 3rd day after withdrawal): -5 mmHg
Changes of blood pressure (renal hypertensive rats [2]; [7]): -6 mmHg
Changes of blood pressure (renal hypertensive rats [2]; [8]): -13 mmHg
Changes of blood pressure after drug withdrawal (renal hypertensive rats [2]; 4th day after withdrawal): +2 mmHg
Changes of blood pressure (renal hypertensive rats [2]; [9]): -10 mmHg
Changes of blood pressure (renal hypertensive rats [2]; [10]): -16 mmHg
Changes of blood pressure after drug withdrawal (renal hypertensive rats [2]; 5th day after withdrawal): +1 mmHg
Changes of blood pressure (renal hypertensive rats [2]; [11]): -10 mmHg
Changes of blood pressure (renal hypertensive rats [2]; [12]): -16 mmHg
Changes of blood pressure after drug withdrawal (renal hypertensive rats [2]; 6th day after withdrawal): +1 mmHg
Changes of blood pressure (renal hypertensive rats [2]; [13]): -9 mmHg
Changes of blood pressure (renal hypertensive rats [2]; [14]): -23 mmHg
Changes of blood pressure (renal hypertensive rats [2]; [15]): -13 mmHg
Changes of blood pressure (renal hypertensive rats [2]; [16]): -25 mmHg

Continued, in another order:

inhibition at 1250 µg/mL (High renin plasma): 21%
inhibition at 1250 µg/mL (Renin): 25%
SMILES: CCCCCC=CCC=CCCCCCCCC(=O)NCCOP(=O)(O)OCCN [(3), 2-(Octadeca-9,12-dienoylamino)ethylphosphoryl ethanolamine]
Changes of blood pressure after drug withdrawal (renal hypertensive rats [1]; 1st day after withdrawal): -39 mmHg
Changes of blood pressure (renal hypertensive rats [1]; [3]): 0 mmHg
Changes of blood pressure (renal hypertensive rats [1]; [4]): -12 mmHg
Changes of blood pressure after drug withdrawal (renal hypertensive rats [1]; 2nd day after withdrawal): -8 mmHg
Changes of blood pressure (renal hypertensive rats [1]; [5]): -1 mmHg
Changes of blood pressure (renal hypertensive rats [1]; [6]): -9 mmHg
Changes of blood pressure after drug withdrawal (renal hypertensive rats [1]; 3rd day after withdrawal): -1 mmHg
Changes of blood pressure (renal hypertensive rats [1]; [7]): -8 mmHg
Changes of blood pressure (renal hypertensive rats [1]; [8]): -17 mmHg
Changes of blood pressure (renal hypertensive rats [1]; [9]): -23 mmHg
Changes of blood pressure (renal hypertensive rats [1]; [10]): -38 mmHg
Changes of blood pressure (renal hypertensive rats [1]; [11]): -27 mmHg
Changes of blood pressure (renal hypertensive rats [1]; [12]): -39 mmHg
Changes of blood pressure (renal hypertensive rats [1]; [13]): -35 mmHg
Changes of blood pressure (renal hypertensive rats [1]; [14]): -48 mmHg

inhibition at 1250 µg/mL (High renin plasma): 24%
inhibition at 1250 µg/mL (Renin): 29%
SMILES: CCCCCC=CCC=CCCCCCCCC(=O)NCCCOP(=O)(O)OCCN [(4), 3-(Octadeca-9,12-dienoylamino)propylphosphoryl ethanolamine]
Changes of blood pressure after drug withdrawal (renal hypertensive rats [1]; 1st day after withdrawal): -29 mmHg
Changes of blood pressure (renal hypertensive rats [1]; [3]): 0 mmHg
Changes of blood pressure (renal hypertensive rats [1]; [4]): -15 mmHg
Changes of blood pressure after drug withdrawal (renal hypertensive rats [1]; 2nd day after withdrawal): -12 mmHg
Changes of blood pressure (renal hypertensive rats [1]; [5]): -7 mmHg
Changes of blood pressure (renal hypertensive rats [1]; [6]): -20 mmHg
Changes of blood pressure after drug withdrawal (renal hypertensive rats [1]; 3rd day after withdrawal): -2 mmHg
Changes of blood pressure (renal hypertensive rats [1]; [7]): -12 mmHg
Changes of blood pressure (renal hypertensive rats [1]; [8]): -27 mmHg
Changes of blood pressure (renal hypertensive rats [1]; [9]): -22 mmHg
Changes of blood pressure (renal hypertensive rats [1]; [10]): -37 mmHg
Changes of blood pressure (renal hypertensive rats [1]; [11]): -28 mmHg
Changes of blood pressure (renal hypertensive rats [1]; [12]): -41 mmHg
Changes of blood pressure (renal hypertensive rats [1]; [13]): -27 mmHg
Changes of blood pressure (renal hypertensive rats [1]; [14]): -41 mmHg

Reference: patent US3985875A, “ω-(N-acylamino)alkylphosphoryl ethanolamines, pharmaceutical compositions containing them, and their uses” (Dainippon Pharmaceutical Co., Ltd., priority 1974, dated 1976)
